Our source for the IC50 values is patent publication US7973061B2, “Anaplastic lymphoma kinase modulators and methods of use” (Exelixis, Inc., priority 2004, dated 2011).

Bounds are passed on as bounds.

The test has as its target T1, ALK (baculovirus expressed human ALK kinase domain F1098-K1410) (Homo sapiens, UniProt Q9UM73).
T1 construct: human ALK kinase domain F1098-K1410; made in house
Put plainly: biochemical. The settings on record: 1 μM ATP, 4 μM poly-AEKY, 12 nM ALK, 2 hours at ambient temperature; read-out: ALK IC50. In short, it runs like this:
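Baculovirus-expressed human ALK kinase domain (F1098-K1410) was run in a luciferase-coupled chemiluminescent format, with ATP near its KM. After 2 h at ambient temperature, remaining ATP was read by luciferase-luciferin luminescence. IC50 came from 10-point dose-response curves fitted to a four-parameter equation with Hill slope.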

A word on the IC50: it is the point on the concentration scale where inhibition reaches its midpoint.

T1 sequence (Q9UM73 1098-1410): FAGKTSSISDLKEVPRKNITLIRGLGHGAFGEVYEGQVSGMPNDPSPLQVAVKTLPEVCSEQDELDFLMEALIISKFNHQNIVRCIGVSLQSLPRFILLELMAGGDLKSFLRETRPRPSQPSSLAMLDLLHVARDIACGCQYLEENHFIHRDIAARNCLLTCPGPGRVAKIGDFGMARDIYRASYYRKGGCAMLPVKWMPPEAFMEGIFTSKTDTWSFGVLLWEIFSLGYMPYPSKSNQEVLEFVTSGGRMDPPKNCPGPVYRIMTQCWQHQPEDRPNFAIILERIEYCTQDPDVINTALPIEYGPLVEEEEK

`NC(=O)C(NC(=O)c1csc(CNC(=O)COc2ccc(OC(F)(F)F)cc2)n1)c1ccccc1` (stereo not shown) [Entry 54, N-(2-amino-2-oxo-1-phenylethyl)-2-({[({4-[(trifluoromethyl)oxy]phenyl}oxy)acetyl]amino}methyl)-1,3-thiazole-4-carboxamide]: the IC50 was in the range of 50 to 500 nM.

With `CC(C)C[C@@H](NC(=O)c1csc(CNC(=O)COc2ccc(OC(F)(F)F)cc2)n1)C(N)=O` [Entry 202, N~2~-{[2-({[({4-[(trifluoromethyl)oxy]phenyl}oxy)acetyl]amino}methyl)-1,3-thiazol-4-yl]carbonyl}-D-leucinamide], the IC50 was in the range of 50 to 500 nM.

On to `O=C(COc1ccc(I)cc1)NCc1nc(C(=O)NCCc2cccc(Cl)c2)cs1` [Entry 16, N-[2-(3-chlorophenyl)ethyl]-2-[({[(4-iodophenyl)oxy]acetyl}amino)methyl]-1,3-thiazole-4-carboxamide], for which the IC50 was less than 50 nM.

Turning to `O=C(COc1ccc(OC(F)(F)F)cc1)NCc1nc(C(=O)NCc2cc(F)ccc2F)cs1` [Entry 61, N-[(2,5-difluorophenyl)methyl]-2-({[({4-[(trifluoromethyl)oxy]phenyl}oxy)acetyl]amino}methyl)-1,3-thiazole-4-carboxamide], the IC50 was 50 to 500 nM.

With `COc1cc(CNC(=O)c2csc(CNC(=O)COc3ccc(OC(F)(F)F)cc3)n2)cc(OC)c1` [Entry 121, N-{[3,5-bis(methyloxy)phenyl]methyl}-2-({[({4-[(trifluoromethyl)oxy]phenyl}oxy)acetyl]amino}methyl)-1,3-thiazole-4-carboxamide], the IC50 was in the range of 50 to 500 nM.

Regarding `CCC(CC)CNC(=O)c1csc(CNC(=O)COc2ccc(OC(F)(F)F)cc2)n1` [Entry 132, N-(2-ethylbutyl)-2-({[({4-[(trifluoromethyl)oxy]phenyl}oxy)acetyl]amino}methyl)-1,3-thiazole-4-carboxamide], the concentration for half-maximal inhibition (IC50) lay in the range of 50 to 500 nM.

For `O=C(COc1ccc(OC(F)(F)F)cc1)NCc1nc(C(=O)NCCN2CCOCC2)cs1` [Entry 205, N-(2-morpholin-4-ylethyl)-2-({[({4-[(trifluoromethyl)oxy]phenyl}oxy)acetyl]amino}methyl)-1,3-thiazole-4-carboxamide], the IC50 fell in the range of 50 to 500 nM.

For the molecule `O=C(COc1ccc(Br)cc1)NCc1nc(C(=O)NCCc2ccccc2F)cs1` [Entry 239, 2-[({[(4-bromophenyl)oxy]acetyl}amino)methyl]-N-[2-(2-fluorophenyl)ethyl]-1,3-thiazole-4-carboxamide], the IC50 fell in the range of 500 to 2000 nM.

As for `O=C(COc1ccc(OC(F)(F)F)cc1)NCc1nc(C(=O)NCCc2ccccc2Cl)co1` [Entry 273, N-[2-(2-chlorophenyl)ethyl]-2-({[({4-[(trifluoromethyl)oxy]phenyl}oxy)acetyl]amino}methyl)-1,3-oxazole-4-carboxamide], the IC50 is 500 to 2000 nM.

Regarding `O=C(COc1ccc(OC(F)(F)F)cc1)NCc1nc(C(=O)NCCc2ccc(F)cc2)co1` [Entry 201, N-[2-(4-fluorophenyl)ethyl]-2-({[({4-[(trifluoromethyl)oxy]phenyl}oxy)acetyl]amino}methyl)-1,3-oxazole-4-carboxamide], the IC50 is 50 to 500 nM.

As for `O=C(COc1ccc(OC(F)(F)F)cc1)NCc1nc(C(=O)NCc2cccc(C(F)(F)F)c2F)cs1` [Entry 158, N-{[2-fluoro-3-(trifluoromethyl)phenyl]methyl}-2-({[({4-[(trifluoromethyl)oxy]phenyl}oxy)acetyl]amino}methyl)-1,3-thiazole-4-carboxamide], the half-maximal inhibitory concentration (IC50) was 50 to 500 nM.

In the case of `COc1cc(CCNC(=O)c2coc(CNC(=O)COc3ccc(OC(F)(F)F)cc3)n2)cc(OC)c1` [Entry 207, N-{2-[3,5-bis(methyloxy)phenyl]ethyl}-2-({[({4-[(trifluoromethyl)oxy]phenyl}oxy)acetyl]amino}methyl)-1,3-oxazole-4-carboxamide], the IC50 was 50 to 500 nM.

As to `COc1ccccc1CCNC(=O)c1csc(CNC(=O)COc2ccc(OC(F)(F)F)cc2)n1` [Entry 80, N-{2-[2-(methyloxy)phenyl]ethyl}-2-({[({4-[(trifluoromethyl)oxy]phenyl}oxy)acetyl]amino}methyl)-1,3-thiazole-4-carboxamide], the IC50 fell in the range of 50 to 500 nM.

Consider `O=C(COc1ccc(OC(F)(F)F)cc1)NCc1nc(C(=O)NC2CCCc3ccccc32)cs1` (stereo not shown) [Entry 199, N-(1,2,3,4-tetrahydronaphthalen-1-yl)-2-({[({4-[(trifluoromethyl)oxy]phenyl}oxy)acetyl]amino}methyl)-1,3-thiazole-4-carboxamide], for which the half-inhibitory concentration (IC50) lay in the range of 50 to 500 nM.

For the molecule `CC(C)CCCC(C)NC(=O)c1csc(CNC(=O)COc2ccc(OC(F)(F)F)cc2)n1` (stereo not shown) [Entry 212, N-(1,5-dimethylhexyl)-2-({[({4-[(trifluoromethyl)oxy]phenyl}oxy)acetyl]amino}methyl)-1,3-thiazole-4-carboxamide], the 50% inhibitory concentration (IC50) fell in the range of 50 to 500 nM.

Regarding `O=C(COc1ccc(OC(F)(F)F)cc1)NCc1nc(C(=O)NCCc2cccc(Cl)c2)c[nH]1` [Entry 306, N-[2-(3-chlorophenyl)ethyl]-2-({[({4-[(trifluoromethyl)oxy]phenyl}oxy)acetyl]amino}methyl)-1H-imidazole-4-carboxamide], the IC50 was more than 2000 nM.

On to `COc1ccc(OC)c(CNC(=O)c2csc(CNC(=O)COc3ccc(OC(F)(F)F)cc3)n2)c1` [Entry 112, N-{[2,5-bis(methyloxy)phenyl]methyl}-2-({[({4-[(trifluoromethyl)oxy]phenyl}oxy)acetyl]amino}methyl)-1,3-thiazole-4-carboxamide], for which the half-maximal inhibitory concentration (IC50) lay in the range of 50 to 500 nM.

Consider `O=C(COc1ccc(Br)cc1)NCc1nc(C(=O)NCCc2cccc(Cl)c2)cs1` [Entry 109, 2-[({[(4-bromophenyl)oxy]acetyl}amino)methyl]-N-[2-(3-chlorophenyl)ethyl]-1,3-thiazole-4-carboxamide], for which the IC50 lay in the range of 50 to 500 nM.

For `CC1CCCCC1NC(=O)c1coc(CNC(=O)COc2ccc(OC(F)(F)F)cc2)n1` (stereo not shown) [Entry 257, N-(2-methylcyclohexyl)-2-({[({4-[(trifluoromethyl)oxy]phenyl}oxy)acetyl]amino}methyl)-1,3-oxazole-4-carboxamide], the IC50 fell in the range of 500 to 2000 nM.

As to `O=C(COc1ccc(OC(F)(F)F)cc1)NCc1nc(C(=O)NCc2cc(F)cc(F)c2)cs1` [Entry 126, N-[(3,5-difluorophenyl)methyl]-2-({[({4-[(trifluoromethyl)oxy]phenyl}oxy)acetyl]amino}methyl)-1,3-thiazole-4-carboxamide], the IC50 lay within 50 to 500 nM.

For the molecule `CCc1ccc(NC(=O)NCc2nc(C(=O)NCc3ccccc3OC)cs2)cc1` [Entry 110, 2-[({[(4-ethylphenyl)amino]carbonyl}amino)methyl]-N-{[2-(methyloxy)phenyl]methyl}-1,3-thiazole-4-carboxamide], the IC50 was 50 to 500 nM.

As for `O=C(COc1ccc(OC(F)(F)F)cc1)NCc1nc(C(=O)NCc2ccccc2C(F)(F)F)cs1` [Entry 63, 2-({[({4-[(trifluoromethyl)oxy]phenyl}oxy)acetyl]amino}methyl)-N-{[2-(trifluoromethyl)phenyl]methyl}-1,3-thiazole-4-carboxamide], the IC50 was 50 to 500 nM.

`CC(CCc1ccccc1)NC(=O)c1csc(CNC(=O)COc2ccc(OC(F)(F)F)cc2)n1` (stereo not shown) [Entry 152, N-(1-methyl-3-phenylpropyl)-2-({[({4-[(trifluoromethyl)oxy]phenyl}oxy)acetyl]amino}methyl)-1,3-thiazole-4-carboxamide]: the half-maximal inhibitory concentration (IC50) fell in the range of 50 to 500 nM.

In the case of `CCCCCC(C)NC(=O)c1csc(CNC(=O)COc2ccc(OC(F)(F)F)cc2)n1` (stereo not shown) [Entry 179, N-(1-methylhexyl)-2-({[({4-[(trifluoromethyl)oxy]phenyl}oxy)acetyl]amino}methyl)-1,3-thiazole-4-carboxamide], the IC50 lay in the range of 50 to 500 nM.

Turning to `C[C@@H](CNC(=O)c1coc(CNC(=O)COc2ccc(OC(F)(F)F)cc2)n1)c1ccccc1` [Entry 128, N-[(2R)-2-phenylpropyl]-2-({[({4-[(trifluoromethyl)oxy]phenyl}oxy)acetyl]amino}methyl)-1,3-oxazole-4-carboxamide], the half-maximal inhibitory concentration (IC50) was in the range of 50 to 500 nM.

Turning to `CCCCOc1ccc(NC(=O)NCc2nc(C(=O)NCc3cccc(OC)c3OC)cs2)cc1` [Entry 248, N-{[2,3-bis(methyloxy)phenyl]methyl}-2-{[({[4-(butyloxy)phenyl]amino}carbonyl)amino]methyl}-1,3-thiazole-4-carboxamide], the IC50 was in the range of 500 to 2000 nM.

On to `O=C(COc1ccc(OC(F)(F)F)cc1)NCc1nc(C(=O)NCCc2cccc(C(F)(F)F)c2)cs1` [Entry 52, 2-({[({4-[(trifluoromethyl)oxy]phenyl}oxy)acetyl]amino}methyl)-N-{2-[3-(trifluoromethyl)phenyl]ethyl}-1,3-thiazole-4-carboxamide], for which the IC50 lay within 50 to 500 nM.

As to `CC(C)c1ccc(OCC(=O)NCc2nc(C(=O)NCCc3cccc(Cl)c3)cs2)cc1` [Entry 72, N-[2-(3-chlorophenyl)ethyl]-2-{[({[4-(1-methylethyl)phenyl]oxy}acetyl)amino]methyl}-1,3-thiazole-4-carboxamide], the IC50 lay within 50 to 500 nM.

Turning to `C[C@@H](CNC(=O)c1csc(CNC(=O)COc2ccc(OC(F)(F)F)cc2)n1)c1ccccc1` [Entry 6, N-[(2R)-2-phenylpropyl]-2-({[({4-[(trifluoromethyl)oxy]phenyl}oxy)acetyl]amino}methyl)-1,3-thiazole-4-carboxamide], the IC50 is less than 50 nM.

Take `COc1ccccc1CNC(=O)c1csc(CNC(=O)Cc2ccc(C(C)C)cc2)n1` [Entry 192, 2-[({[4-(1-methylethyl)phenyl]acetyl}amino)methyl]-N-{[2-(methyloxy)phenyl]methyl}-1,3-thiazole-4-carboxamide]: the IC50 lay within 50 to 500 nM.

As to `O=C(NCCc1cccc(Cl)c1)c1csc(CNC(=O)C2(c3ccc(Cl)cc3)CC2)n1` [Entry 236, 2-[({[1-(4-chlorophenyl)cyclopropyl]carbonyl}amino)methyl]-N-[2-(3-chlorophenyl)ethyl]-1,3-thiazole-4-carboxamide], the IC50 is 500 to 2000 nM.
